For assay [1], the system named is Macaca mulatta TMC6 protein. The assay is described as follows: Calcium imaging of CHO-K1 cells expressing the Macaca mulatta TMC6 gene. The format is cell-based. Conditions: stimulation with high-concentration NaCl solution for 60 sec, 28 cells. From the text: CHO-K1 cells were transfected with Macaca mulatta TMC6-2A-YC260TM in pcDNA3.1(−), Pongo abelii TMC6-2A-YC260TM in pcDNA3.1(−), Mouse-Aotus nancymaae chimera TMC6 2A-YC260TM in pcDNA3.1(−), or YC2.60-pcDNA, to prepare TMC6-expressing cells (cells expressing the Macaca mulatta TMC6 gene, the Pongo abelii TMC6 gene, or the mouse/Aotus nancymaae chimeric TMC6 gene, in combination with the YC2.60 gene) and control cells (cells expressing the YC2.60 gene). The prepared cells were stimulated, and activation of the cells was measured. The procedure was as follows.
First, a plurality of sterile cover glasses (18×32 mm, Matsunami Glass) were placed at the bottom of a culture dish having a diameter of 100 mm so as not to be overlapped to each other. CHO-K1 cells (ATCC) were inoculated thereto while adjusting the number of the cells to obtain 60% confluence, and cultured for 24 hr. Then, medium exchange was carried out. As the medium, 12 mL of Ham's F-12K (Kaighn's) (Life Technologies) containing 10% fetal bovine serum (Life Technologies) was used. […]
Change of the intracellular calcium concentration was measured and analyzed with analysis software equipped with FV1200. An average YFP/CFP value of all the cell of which the YFP/CFP value was changed by stimulation with the ATP stimulation solution was calculated at each measurement. […]

The subject of assay [2] is chimeric TMC6 protein of mouse and Aotus nancymaae. The assay is described as follows: Calcium imaging of CHO-K1 cells expressing the mouse/Aotus nancymaae chimeric TMC6 gene. The format is cell-based. Conditions: stimulation with high-concentration NaCl solution for 60 sec, 21 cells. From the text:
The nucleotide sequence of the CDS of the chimeric TMC6 gene cloned into Mouse-Aotus nancymaae chimera TMC6 2A-YC260TM in pcDNA3.1(−) was confirmed to consist of an upstream part identical to positions 1 to 45 of the nucleotide sequence of mRNA of the mouse TMC6 gene (NM_145439) and a downstream part identical to positions 52 to 2421 of the nucleotide sequence of mRNA of the Aotus nancymaae TMC6 gene (XM 012453598) registered in NCBI by sequencing analysis. The chimeric TMC6 gene encodes a chimeric TMC6 protein consisting of the amino acid sequence of positions 1 to 15 of the mouse TMC6 protein (SEQ ID NO: 26) and the amino acid sequence of positions 18 to 807 of the Aotus nancymaae TMC6 protein (SEQ ID NO: 1). The nucleotide sequence of Mouse-Aotus nancymaae chimera TMC6 2A-YC260TM in pcDNA3.1(−) is shown as SEQ ID NO: 63. […]
CHO-K1 cells were transfected with Macaca mulatta TMC6-2A-YC260TM in pcDNA3.1(−), Pongo abelii TMC6-2A-YC260TM in pcDNA3.1(−), Mouse-Aotus nancymaae chimera TMC6 2A-YC260TM in pcDNA3.1(−), or YC2.60-pcDNA, to prepare TMC6-expressing cells (cells expressing the Macaca mulatta TMC6 gene, the Pongo abelii TMC6 gene, or the mouse/Aotus nancymaae chimeric TMC6 gene, in combination with the YC2.60 gene) and control cells (cells expressing the YC2.60 gene). The prepared cells were stimulated, and activation of the cells was measured. […]

Assay [3] relates to C57BL/6J mouse and knockout mice. The assay is described as follows: NaCl palatability test, two-bottle choice method. Conditions: for NaCl palatability: 96 hr.
Experimental: Thus, an NaCl palatability test was carried out by using the wild-type C57BL/6J mouse and the knockout mice obtained in Example 1.
The NaCl palatability test was carried out by the two-bottle choice method (abbreviated as “two-bottle method”) for 96 hr. That is, two 11-mL plastic bottles (water dispenser bottles) were filled with a test aqueous solution, moisture outside of the bottles was wiped out and dried, the weights thereof (the total weight of the bottle, a water dispenser tube made of stainless, and the aqueous solution, for each bottle) were measured, and the bottles were inserted into a metal lid of a breeding cage at an angle of approximately 30 degrees. […] The positions of the bottles were laterally interchanged every day. The weights of the bottles were measured every 24 hours, to calculate the reduced amounts of the aqueous solutions. Separately, four water dispenser bottles filled with deionized water were located on a vacant breeding cage, and changes of the weights were measured every day, to calculate an average value of the sum of the evaporation amount of the aqueous solution and the dropped amount of the aqueous solution due to experimental operation (approximately 0.05 g to 0.06 g). To prevent dropping of the aqueous solutions due to rocking of the lid of the breeding cage and the bottles by the mice, a transparent acryl board (10 cm×15 cm×1 cm, 180 g) was located on the bottles as a weight. The average value of the sum of the evaporation and dropped amounts of each aqueous solution was subtracted from the reduced amount of the same, and the resulting value was regarded as the intake amount of each aqueous solution. The ratio of the intake amount of the NaCl aqueous solution with respect to the total intake amount of the control aqueous solution and the NaCl aqueous solution was calculated and regarded as NaCl palatability.

Experimental findings from patent US10175228B2, “Method of using transmembrane channel-like protein 6 (TMC6) protein to identify substances affecting salty taste” (priority 2016, dated 2019) are described below.

In the case of `[Cl-].[Na+]` [NaCl, sodium chloride], the “change of average YFP/CFP value (intracellular calcium concentration)” value in assay [1] and in assay [2] was “increase” each time. For the same molecule, the NaCl palatability entry in assay [3] (hetero knockout mouse of the TMC6 gene (Tmc6 +/−), 100 mM NaCl + 30 μM amiloride) was “high”; in assay [3] (homo knockout mouse of the TMC3 gene (Tmc3 −/−), 100 mM NaCl + 30 μM amiloride) it was “high”; in assay [3] (homo knockout mouse of the TMC6 gene (Tmc6 −/−), 100 mM NaCl + 30 μM amiloride, compared with the other subject mice (P<0.05 or P<0.01)), “remarkably reduced”; in assay [3] (homo knockout mouse of the TMC8 gene (Tmc8 −/−), 100 mM NaCl + 30 μM amiloride) it was “high”; in assay [3] (wild-type C57BL/6J mouse, 100 mM NaCl, in the presence of 30 μM amiloride), “remarkable and high”. In addition, in assay [3] (wild-type C57BL/6J mouse fed D12450B (0.1% sodium), without amiloride), the “palatability for a NaCl aqueous solution” value was “slightly higher than that for water”.
